# According to patent US20260183408A1, “POLYPEPTIDE AND USE THEREOF” (SHENZHEN CHENYANG BIOLOGICAL TECHNOLOGY CO., LTD, priority 2022, published 2026):
# Experiments:
# D2R/5-HT2CR complex = target: T1, D2R/5-HT2CR complex (Mus musculus, UniProt P34968); assay: Co-immunoprecipitation of hippocampal tissue of polypeptide-treated SPS mice; format: in vivo; details: intraperitoneal, 1.5 h (FIG. 7 left)
# T1 construct: from tissue
# T1 sequence (P34968 33-459): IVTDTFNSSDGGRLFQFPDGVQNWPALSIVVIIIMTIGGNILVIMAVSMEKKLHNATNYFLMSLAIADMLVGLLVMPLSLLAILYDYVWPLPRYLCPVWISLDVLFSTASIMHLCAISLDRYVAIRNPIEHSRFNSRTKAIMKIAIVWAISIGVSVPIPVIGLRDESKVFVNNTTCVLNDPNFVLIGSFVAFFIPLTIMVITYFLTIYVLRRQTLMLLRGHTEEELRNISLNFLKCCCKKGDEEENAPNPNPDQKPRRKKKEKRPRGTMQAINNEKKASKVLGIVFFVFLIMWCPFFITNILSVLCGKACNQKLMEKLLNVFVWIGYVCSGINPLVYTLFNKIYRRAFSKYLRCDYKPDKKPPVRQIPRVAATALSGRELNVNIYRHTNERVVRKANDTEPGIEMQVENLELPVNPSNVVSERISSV
# Method: Co-immunoprecipitation was performed using protein samples (with 100-500 μg protein) from the hippocampal tissue of the Balb/c mice. Mouse monoclonal antibodies against both 5-HT2CR and D2R, D2R, or 5-HT2CR were used for precipitation with 25 μl of the slurry of protein A/G+agarose beads (SantaCruz Biotechnology, sc-2001).
# Western blotting analysis after precipitation: Denatured (at 100° C. for 10 min) proteins were separated on an 8% SDS-PAGE gel, then transferred to a nitrocellulose membrane, which was then blocked with skim milk in TBST (Tris-buffered saline with 0.1% Tween 20). Next, incubation was carried out with the primary antibodies at 4° C. overnight. Finally, treatment with an HRP-conjugated secondary antibody were performed for 1 h, signals were detected using the ECL UltraSignal chemiluminescence kit (4A Biotech, cat. no. 4AW011-500), and the bands were analyzed for densities using the Image Lab software.
# The SPS model was established with male Balb/c mice. […]
# The fear conditioning, safety learning, and recall tests were carried out in two contexts (the fear conditioning and safety learning tests were carried out in context A; and the recall test was carried out in context B). […] After the experiment was completed, the freezing level was manually calculated based on the recorded video. […]
# SPS mice = assay: Fear conditioning, safety learning and recall tests (freezing level); format: in vivo; details: treated for 1.5 h, 3 nM intraperitoneally, 100 μl/10 g mouse (FIG. 7 right)
# Method: The SPS model was established with male Balb/c mice. The modified SPS protocol was used to comprise a series of stress exposure: 2 hours of restraint stress (inside a 50-mL plastic tube having several air holes), 3 min of rest, 12 min of forced swimming in a transparent glass tank (at about 24° C.), 15 min of rest (drying under a warming lamp), 20 min of predator (rat) odor exposure, followed by ether anesthesia (until the mice completely lost consciousness). Thereafter, the mice are transferred back to their cages with fresh bedding. The control mice were housed in groups and received no stress exposure. After the model establishment, all mice were raised undisturbed for one week.
# The fear conditioning, safety learning, and recall tests were carried out in two contexts (the fear conditioning and safety learning tests were carried out in context A; and the recall test was carried out in context B). The shapes and smells provided in contexts A and B were different. Indoor floors were cleaned with 1% acetic acid or 75% ethanol prior to testing. […] After the experiment was completed, the freezing level was manually calculated based on the recorded video. The criterion for a freezing behavior is that if no movement other than normal breathing of a mouse was detected within 2 seconds, then the mouse was considered freezing. […]
# CRS mice [1] = assay: Sucrose preference test (SPT); format: in vivo, mouse; details: single intraperitoneal 3 nmol/g, compared with TAT-treated mice (FIG. 12)
# Method: (§1) The C57BL/6J mice were horizontally fixed for 6 h (from 10 to 16 o'clock) in a first acrylic restraint which is cylindrical and flat-bottomed (25×90 mm) every day for 2 weeks. The filter had several slots which could adapt to the size of each mouse to firmly restrain the mouse and inhibit body movements of the limb and trunk without causing pain. Immediately after being restrained, the mice were sent back to their cages. Unrestrained mice (control) stayed in their cages when no CRS procedure was performed. Neither the control mice nor the CRS mice could have access to food and water during the CRS exposure.
# The C57BL/6J mice were subjected to various stress including restraint (for 4 h), cage tilting (for 45 times, with 12 h each time), light-dark cycle reversal (once), flash (for 12 h), and dirty cage (for 2 times, with 14 h each time). The protocol lasted 6 weeks. Control mice were not subjected to corresponding stress.
# The mice were treated with TAT or TAT-D2R-KL (single intraperitoneal administration at 3 nmol/g in both cases). […]
# SPT (Sucrose preference test): A two-bottle choice paradigm was adopted. […] Finally, the volume of consumed water or sucrose solution was recorded and calculation was carried out with the following equation (I): […]
# CRS mice [2] = assay: Open field test (OFT, time spent in the central area); format: in vivo, mouse; details: single intraperitoneal 3 nmol/g, 1 hour later (FIG. 13)
# Method: as §1
# In order to evaluate the anti-anxiety-like effect of the polypeptide of the present invention, a CRS mouse model was established using the method in Example 6. The mice were treated with TAT or TAT-D2R-KL (single intraperitoneal administration at 3 nmol/g in both cases), and 1 hour later, an open field test (OFT) for testing the time spent in the central area and an elevated plus maze (EPM) test were performed. […]
# OFT (for testing the time spent in the central area): The bottom of the open field was divided into 25 squares of equal area, with the 9 squares in the middle defined as the central area. One hour after the polypeptide treatment, the mice were placed in the central area to be recorded for 5 min, and the time spent in the central area by the mice was recorded.
substance,measurement,setting,value
TAT-D2R-KL: C-terminus of the KL (K226-L240) region of D2R fused to the transduction domain of HIV-1 Tat protein (SEQ ID NO: 5),interaction between 5-HT2CR and D2R,D2R/5-HT2CR complex,decrease
same,freezing level,SPS mice,reduced
same,sucrose preference,CRS mice [1],significantly enhanced
same,time spent in the central area,CRS mice [2],significantly increased
